The results in this text go back to patent US6784192B2, “Piperidine compound and pharmaceutical composition thereof” (Eisai Co., Ltd., priority 2000, dated 2004).

Each structure is given as a SMILES string.

In general, IC50 refers to the midpoint of a concentration-inhibition curve. A high value points to lower potency.

Experiment [1] relates to atrial muscle of anesthetized thoracotomy dog. As to the kind of experiment: Effective refractory period (ERP) in anesthetized thoracotomy dog. It counts as in vivo. As to conditions: for Measurement Value of ERP: mean. An excerpt:
(1) An anesthetized thoracotomy dog was used for the present experiment. After opening brisket at a median line and cutting epicardium, bipolar electrodes for determination of a potential wave form were respectively stitched at the free walls of right and left atriums. Further, a wire electrode was inserted in the free wall of a right atrium to be fixed and used for electrical simulation.
(2) A program electrical stimulation equipment was connected with the electrode for electrical stimulation at the right atrium, the electrical stimulation was carried out at a stimulation periodical length of 500 mess, and a threshold for the electrical stimulation was measured. The electrical stimulation intensity for the experiments below was set to carry out stimulation at 3-fold of this threshold. However, when the threshold was 0.7 V or less, the electrical stimulation was carried out at 2.0 V. Effective refractory period (ERP) provided early premature stimulation (S2) after the basic stimulation (S1) of 10 times, and the longest linking period in which atrium potential was not generated by the premature stimulation was referred to as ERP, while shortening the linking period (S1-S2) by 5 mess. Similar experiments were also carried out for the respective basic stimulation length (BCL) of 400, 300, 250 and 200 mess (control experiment: 1 series). After carrying out 2 times or more of the control experiments and confirming that ERP was stable, the tested substance was subsequently administered, and similar measurement was carried out. After the tested substance was administered once intravenously for 5 minutes, its keeping dose was subsequently administered intravenously. After 10 minutes of the administration start of the keeping dose, ERP was measured in the respective stimulation frequency. After completion of the one series of measurements, the concentration of the tested substance was increased and the similar experiments were repeated. The ERP and conduction time in the atrium in the respective stimulation frequency were compared with various indices under control condition. The result is shown by mean.

In the next experiment the test system is rabbit atrial muscle. As to the kind of experiment: Assessment for rabbit atrial muscle, Vmax. As to conditions: Oryctolagus cuniculus, 0.25 h; Test Example 4; right atrial muscle, stimulation frequency 4 Hz, 15 minutes. Here is the method: The specimen of the right atrial muscle which was enucleated from rabbit was used for the present experiment. The electrical stimulation was applied for the right atrial muscle which was enucleated, under conditions: a stimulation duration of 1 mess; a stimulation frequency of 4 Hz; and a stimulation intensity of about 1.2-fold of the threshold. The stimulation was provided from 30 minutes to 60 minutes before start of the experiment, and the condition of the specimen was stabilized. The action potential was recorded according to a glass microelectrode method. 3 M KCl was charged in the glass electrode, inserted in the specimen of the right atrium, and the action potential was recorded. Vmax is the parameter of the maximum upstroke slope of the action potential recorded, and a value which was automatically calculated by an action potential analysis soft (CAPA 1.23 manufactured by Physiotec. Co., Ltd.) was used. After the action potential in a normal Tyrode solution was recorded as control, the action potential after flowing the tested substances at respective concentrations for 15 minutes was recorded. The action of the tested substance for Vmax was calculated as an IC50 value.

Experiment [2] has as its system spontaneous nerve discharge of cut left saphenous nerve. Kind of experiment: Suppression of spontaneous nerve discharge (ectopic firing). The class given is in vivo. The conditions noted are these: Test Example 5, rat, intravenous catheter, urethane anesthetized; for ED50: read-out: Ectopic Firing (ID50 mg/kg). Here is the method:
In order to assess the suppression action for spontaneous nerve discharge, the experiment was carried out by a method below, referring to “Burchiel, K J., Exp. Nuerol., 102, 249-253 (1988)”. Namely, for the rat in which spontaneous discharge was observed, the left saphenous nerve was cut off nearby knee articulatio before 1 week or more, and around 3 mm of the nerve was cut off so that the nerve was not adhered again. The left saphenous nerve was exposed under urethane (1 g/kg body weight) anesthetized, and about 1 cm of adjacent portion from the cut portion was peeled from a periphery tissue. Further, a catheter was preliminarily inserted in the vein of a right neck for administration of a compound. The peeled nerve was mounted on a platinum hook electrode, and liquid paraffin was put on it so that the nerve was not dried. The electrode was connected with a fine electrode amplifier, and the value was recorded on a computer through an AD/converter from an oscilloscope. The nerve discharge recorded was assessed by the number of ignition per 10 seconds using an analysis soft (AcqKnowledge).

Setting [3] is: dose 0.1 mg/kg intravenously, BCL 200 msec.
The mark [4] stands for this setting: dose 0.1 mg/kg intravenously, BCL 300 msec.
Where [5] appears, read: dose 0.1 mg/kg intravenously, BCL 400 msec.
The mark [6] stands for this setting: dose 0.1 mg/kg intravenously, BCL 500 msec.
[7] abbreviates: dose 0.3 mg/kg intravenously, BCL 200 msec.
Setting [8] is: dose 0.3 mg/kg intravenously, BCL 300 msec.
[9] abbreviates: dose 0.3 mg/kg intravenously, BCL 400 msec.
The mark [10] stands for this setting: dose 0.3 mg/kg intravenously, BCL 500 msec.
Where [11] appears, read: dose 1 mg/kg intravenously, BCL 200 msec.
The mark [12] stands for this setting: dose 1 mg/kg intravenously, BCL 300 msec.
[13] abbreviates: dose 1 mg/kg intravenously, BCL 400 msec.
The mark [14] stands for this setting: dose 1 mg/kg intravenously, BCL 500 msec.
[15] abbreviates: dose 0.1 mg/kg intravenously, BCL 250 msec.
[16] abbreviates: dose 0.3 mg/kg intravenously, BCL 250 msec.

For the compound `O=c1[nH]cccc1CN1CCC(CCc2nccs2)CC1` [Example 109, 1-[(2-Oxo-1,2-dihydro-3-pyridinyl)methyl]-4-[2-(1,3-thiazol-2-yl)ethyl]piperidine], the “Measurement Value of ERP” value in experiment [1] (setting [3]) was 110 ms; in experiment [1] (setting [4]), 140 ms; in experiment [1] (setting [5]), 165 ms; in experiment [1] (setting [6]) it was 185 ms; in experiment [1] (setting [7]) it was 130 ms; in experiment [1] (setting [8]), 155 ms. Besides, the “Measurement Value of ERP” value in experiment [1] (setting [9]) was found to be 185 ms; in experiment [1] (setting [10]), 200 ms; in experiment [1] (setting [11]) it was 150 ms; in experiment [1] (setting [12]), 175 ms; in experiment [1] (setting [13]), 215 ms; in experiment [1] (setting [14]), 235 ms.
Turning to `COc1ncccc1CCC1CCN(Cc2ccc[nH]c2=O)CC1` [Example 118, 1-[(2-Oxo-1,2-dihydro-3-pyridinyl)methyl]-4-[2-(2-methoxy-3-pyridyl)ethyl]piperidine], the “Measurement Value of ERP” value in experiment [1] (setting [7]) is 130 ms; in experiment [1] (setting [8]), 160 ms; in experiment [1] (setting [9]) it was 180 ms; in experiment [1] (setting [10]), 190 ms; in experiment [1] (setting [12]), 190 ms; in experiment [1] (setting [13]), 215 ms. Besides, the “Measurement Value of ERP” value in experiment [1] (setting [14]) stood at 220 ms.
Consider `O=c1[nH]cccc1CN1CCC(CCc2cccc3c2OCO3)CC1` [Example 128, 1-[(2-Oxo-1,2-dihydro-3-pyridinyl)methyl]-4-(2,3-methylenedioxyphenethyl)piperidine], for which the “Measurement Value of ERP” value in experiment [1] (setting [3]) is 125 ms; in experiment [1] (setting [4]) it was 160 ms; in experiment [1] (setting [5]) it was 175 ms; in experiment [1] (setting [6]) it was 185 ms; in experiment [1] (setting [7]) it was 155 ms; in experiment [1] (setting [8]) it was 180 ms. Also, the “Measurement Value of ERP” value in experiment [1] (setting [9]) was 195 ms; in experiment [1] (setting [10]), 210 ms; in experiment [1] (setting [12]) it was 215 ms; in experiment [1] (setting [13]) it was 250 ms; in experiment [1] (setting [14]) it was 280 ms.
As for `COc1ccccc1C(=O)CC1CCN(Cc2ccc[nH]c2=O)CC1` [Example 144, 1-[(2-Oxo-1,2-dihydro-3-pyridinyl)methyl]-4-[2-(2-methoxyphenyl)-2-oxoethyl]piperidine], the “Measurement Value of ERP” value in experiment [1] (setting [3]) turned out to be 140 ms; in experiment [1] (setting [15]), 155 ms; in experiment [1] (setting [4]), 165 ms; in experiment [1] (setting [5]), 190 ms; in experiment [1] (setting [6]), 200 ms; in experiment [1] (setting [7]), 155 ms. Moreover, the “Measurement Value of ERP” value was determined as 165 ms in experiment [1] (setting [16]), 180 ms in experiment [1] (setting [8]), 200 ms in experiment [1] (setting [9]) and 215 ms in experiment [1] (setting [10]).
In the case of `C#CCN(CC#C)C(=O)C[C@H]1CCCCN1Cc1ccc[nH]c1=O` [Example 191, N1,N1-Di(2-propynyl)-2-[(2R)-1-[(2-oxo-1,2-dihydro-3-pyridinyl)methyl]-2-piperidyl]acetamide], the “Measurement Value of ERP” value in experiment [1] (setting [7]) came to 135 ms; in experiment [1] (setting [8]), 155 ms; in experiment [1] (setting [9]), 165 ms; in experiment [1] (setting [10]), 175 ms; in experiment [1] (setting [11]) it was 150 ms; in experiment [1] (setting [12]) it was 170 ms. Moreover, the “Measurement Value of ERP” value came out at 185 ms in experiment [1] (setting [13]) and 195 ms in experiment [1] (setting [14]). Also, the “Percent change in ERP versus pre-dose control” value in experiment [1] (dose 0.3 mg/kg, BCL 300 msec) is listed as 14.8%; in experiment [1] (dose 0.3 mg/kg, BCL 400 msec), 6.5%; in experiment [1] (dose 0.3 mg/kg, BCL 500 msec), 9.4%; in experiment [1] (dose 1 mg/kg, BCL 300 msec), 25.9%; in experiment [1] (dose 1 mg/kg, BCL 400 msec), 19.4%; in experiment [1] (dose 1 mg/kg, BCL 500 msec), 21.9%.
Take `C#CCN(CC#C)C(=O)C[C@H]1CCCCN1Cc1cccn(CC(F)(F)F)c1=O` [Example 194, N1,N1-Di(2-propynyl)-2-[(2R)-1-[[2-oxo-1-(2,2,2-trifluoroethyl)-1,2-dihydro-3-pyridinyl)methyl]hexahydro-2-pyridinyl]acetamide]: the “Measurement Value of ERP” value in experiment [1] (setting [3]) came out at 110 ms; in experiment [1] (setting [15]), 120 ms; in experiment [1] (setting [4]), 135 ms; in experiment [1] (setting [5]), 155 ms; in experiment [1] (setting [6]) it was 165 ms; in experiment [1] (setting [7]) it was 125 ms. The “Measurement Value of ERP” value in experiment [1] (setting [16]) turned out to be 126 ms; in experiment [1] (setting [8]), 145 ms; in experiment [1] (setting [9]), 165 ms; in experiment [1] (setting [10]) it was 175 ms; in experiment [1] (setting [11]) it was 145 ms; in experiment [1] (dose 1 mg/kg intravenously, BCL 250 msec) it was 155 ms. Further, the entries for the “Measurement Value of ERP” value in experiment [1] (setting [12]), in experiment [1] (setting [13]) and in experiment [1] (setting [14]) were 170 ms, 195 ms and 210 ms, respectively.
Compound `O=c1[nH]cc(Cl)cc1CN1CCC(/C=C/c2ccccc2F)CC1` [Example 334, 1-[(5-Chloro-2-oxo-1,2-dihydro-3-pyridinyl)methyl]-4-[(E)-2-(2-fluorophenyl)-1-ethenyl]piperidine] displayed an IC50 with rabbit atrial muscle of 17.5 µM. Further, the ED50 in experiment [2] amounted to 0.03 mg/kg.
As for `Cc1ccccc1/C=C/C1CCN(Cc2cc(Cl)c[nH]c2=O)CC1` [Example 337, 1-[(5-Chloro-2-oxo-1,2-dihydro-3-pyridinyl)methyl]-4-[(E)-2-(2-methylphenyl)-1-ethenyl]piperidine], the ED50 in experiment [2] turned out to be 0.3 mg/kg.
Take `O=C(O)C(=O)O.O=c1[nH]cc(F)cc1CN1CCC(/C=C/c2ccccc2OCC2CCCCC2)CC1` [Example 345, 1-[(5-Fluoro-2-oxo-1,2-dihydro-3-pyridinyl)methyl]-4-[(E)-2-[(2-cyclohexylmethyloxy)phenyl]-1-ethenyl]piperidine oxalate]: the “Ectopic Firing (ID50 mg/kg)” value in experiment [2] was 0.4 mg/kg.
Same read-out and setting: as for `O=C(O)C(=O)O.O=c1[nH]cccc1CN1CCC(C#Cc2ccccc2OCC2CCCCC2)CC1` [Example 349, 1-[(2-Oxo-1,2-dihydro-3-pyridinyl)methyl]-4-[2-[(2-cyclohexylmethyloxy)phenyl]-1-ethynyl]piperidine oxalate], the figure is 0.17 mg/kg.
`N#Cc1c[nH]c(=O)c(CN2CCC(/C=C/c3ccccc3F)CC2)c1` [Example 351, 1-[(5-Cyano-2-oxo-1,2-dihydro-3-pyridinyl)methyl]-4-[(E)-2-(2-fluorophenyl)-1-ethenyl]piperidine]: the ED50 in experiment [2] was 0.17 mg/kg.
